Source: patent US7902184B2, “Piperazinyl pyrimidine derivatives” (Hoffmann-La Roche Inc., priority 2006, dated 2011)

Molecular target: T1, histamine 3 receptor (H3R) (Homo sapiens, UniProt Q9Y5N1)
T1 construct: expressed in transfected cells; host or cells: CHO cells (membranes)
Assay: Binding assay with 3H-(R)α-methylhistamine (competition binding, H3R-CHO membranes)
Conditions: membrane of the human H3R-CHO cell line; 3H(R)α-methylhistamine 1 nM; Ki calculated from IC50 by Cheng-Prusoff
Experimental: Binding Assay with ^3H—(R)α-methylhistamine
Saturation binding experiments were performed using HR3-CHO membranes prepared as described in Takahashi, K, Tokita, S., Kotani, H. (2003) J. Pharmacol. Exp. Therapeutics 307, 213-218.
An appropriate amount of membrane (60 to 80 μg protein/well) was incubated with increasing concentrations of ^3H(R)α-methylhistamine di-hydrochloride (0.10 to 10 nM). Non specific binding was determined using a 200 fold excess of cold (R)α-methylhistamine dihydrobromide (500 nM final concentration). The incubation was carried out at room temperature (in deep-well plates shaking for three hours). The final volume in each well was 250 μl. The incubation was followed by rapid filtration on GF/B filters (pre-soaked with 100 μl of 0.5% PEI in Tris 50 mM shaking at 200 rpm for two hours). The filtration was made using a cell-harvester and the filter plates were then washed five times with ice cold washing buffer containing 0.5 M NaCl. After harvesting, the plates were dried at 55° C. for 60 min, then scintillation fluid (Microscint 40, 40 microl in each well) was added and the amount of radioactivity on the filter was determined in Packard top-counter after shaking the plates for two hours at 200 rpm at room temperature.
Binding Buffer: 50 mM Tris-HCl pH 7.4 and 5 mM MgCl2×6H2O pH 7.4. Washing Buffer: 50 mM Tris-HCl pH 7.4 and 5 mM MgCl2×6H2O and 0.5 M NaCl pH 7.4.
Indirect measurement of affinity of H3R inverse agonists: twelve increasing concentrations (ranging from 10 μM to 0.3 nM) of the selected compounds were always tested in competition binding experiments using membrane of the human H3R-CHO cell line. […]
All compounds were tested at a single concentration in duplicate. […] Ki's were calculated from IC50 based on Cheng-Prusoff equation (Cheng, Y, Prusoff, W H (1973) Biochem Pharmacol 22, 3099-3108): Ki=IC50/[1+D/Kd] wherein D is the concentration of the radioligand and Kd is the binding constant for the radioligand binding to the receptor and the conditions used in the competition experiment.

T1 sequence (Q9Y5N1 whole entry): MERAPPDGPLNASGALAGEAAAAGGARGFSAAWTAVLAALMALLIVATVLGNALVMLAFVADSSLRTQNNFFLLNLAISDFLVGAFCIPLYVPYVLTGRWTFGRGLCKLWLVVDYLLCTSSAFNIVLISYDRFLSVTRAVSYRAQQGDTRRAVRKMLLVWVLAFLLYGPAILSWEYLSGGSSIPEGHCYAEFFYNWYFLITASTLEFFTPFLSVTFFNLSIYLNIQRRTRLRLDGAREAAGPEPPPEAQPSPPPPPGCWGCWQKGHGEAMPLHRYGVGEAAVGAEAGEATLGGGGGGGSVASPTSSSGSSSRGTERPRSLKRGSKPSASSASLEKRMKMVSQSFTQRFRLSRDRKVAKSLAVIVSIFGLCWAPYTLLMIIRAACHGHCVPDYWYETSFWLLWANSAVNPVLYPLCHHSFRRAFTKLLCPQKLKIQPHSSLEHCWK

Ki [nM]	Structure (SMILES)
51	O=C(Nc1ccnc(N2CCN(C3CCCC3)CC2)n1)N1CCCCCC1 [Example 6, azepane-1-carboxylic acid [2-(4-cyclopentyl-piperazin-1-yl)-pyrimidin-4-yl]-amide]
34.6	CC(C)N1CCN(c2cc(NC(=O)N3CCCCC3)ncn2)CC1 [Example 54, piperidine-1-carboxylic acid [6-(4-isopropyl-piperazin-1-yl)-pyrimidin-4-yl]-amide]
22.2	CC1CC(C)CN(C(=O)Nc2cc(N3CCN(C4CCCCC4)CC3)ncn2)C1 (stereo not drawn) [Example 93, 3,5-Dimethyl-piperidine-1-carboxylic acid [6-(4-cyclohexyl-piperazin-1-yl)-pyrimidin-4-yl]-amide]
